Like-named read-outs stand apart in the source and are kept apart here. Peptide text beside a SMILES is read from it.
What was measured:
[1] = target: T1, ChemerinR (Homo sapiens, UniProt Q99788); assay: Calcium flux - Aequoscreen assay; format: cell-based
T1 construct: This fragment was subcloned into the pcDNA3 (Invitrogen) vector; expressed in transfected cells; CHO-K1 elsewhere)
T1 sequence (Q99788 3-373): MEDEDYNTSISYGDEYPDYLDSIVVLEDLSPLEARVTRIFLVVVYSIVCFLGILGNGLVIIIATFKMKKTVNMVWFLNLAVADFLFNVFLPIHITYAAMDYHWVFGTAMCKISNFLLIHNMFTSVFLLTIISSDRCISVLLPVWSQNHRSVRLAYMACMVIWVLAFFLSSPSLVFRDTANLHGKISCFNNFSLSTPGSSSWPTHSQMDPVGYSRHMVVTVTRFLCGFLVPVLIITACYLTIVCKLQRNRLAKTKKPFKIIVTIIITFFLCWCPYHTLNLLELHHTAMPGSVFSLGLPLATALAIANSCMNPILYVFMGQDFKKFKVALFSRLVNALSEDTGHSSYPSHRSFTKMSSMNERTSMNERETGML
Protocol: ChemerinR expressing clones were transfected to coexpress mithochondrial apoaequorin and Gα16. Cells in mid-log phase, grown in media without antibiotics 18 hours prior to the test, were detached by gentle flushing with PBS-EDTA (5 mM EDTA), recovered by centrifugation and resuspended in “BSA medium” (DMEM/HAM's F12 with HEPES, without phenol red+0.1% BSA). Cells were then counted, centrifuged and resuspended in a 15 ml Falcon tube at a concentration of 1×10^6 cells/ml.
The Falcon tube, wrapped in aluminium foil, was then placed on a vertical rotating wheel and incubated at room temperature (temperature should be maintained below 22° C.) overnight in order to reconstitute active aequorin.
Cells were then diluted 1/10 in “BSA-medium” and incubated as described above for 60 min. Reference ligands were diluted in “BSA-medium” and distributed in a 96-well plate (50 μl/well). For each measurement, 50 μl of cells (i.e. 5 000 cells) were injected into each well of the plate containing the ligands, and the emitted light is recorded (FDSS, Hamamatsu) during 20 seconds following cells injection. Results were expressed as Relative Light Units (RLU).
The intensity of the emitted light was integrated, yielding for each well one value representative of the emitted light.

[2] = target: T2, human ChemerinR (ChemR23) expressed in CHO-K1 cells (Homo sapiens, UniProt Q99788); assay: aequorin-based intracellular Ca2+ release assay; format: cell-based
T2 construct: This fragment was subcloned into the pcDNA3 (Invitrogen) vector; expressed in transfected cells; host or cells: CHO-K1 (co-expressing mitochondrial apoaequorin and Galpha16)
T2 sequence (Q99788 3-373): T1 sequence (Q99788 3-373)
Protocol: Briefly, ChemerinR-expressing clones are transfected to coexpress mitochondrial apoaequorin and Gα16. Cells are incubated with 5 μM Coelenterazine H (Molecular Probes) for 4 hours at room temperature, washed in DMEM-F12 culture medium and resuspended at a concentration of 0.5×10^6 cells/ml. Cells are then mixed with test agonist peptides and light emission by the aequorin is recorded with a luminometer for 30 sec. Results are expressed as Relative Light Units (RLU). Controls include assays using membranes isolated from cells not expressing ChemerinR (mock-transfected), in order to exclude possible non-specific effects of the candidate compound.
ChemerinR-expres sing clones have been obtained by transfection of CHO-K1 cells to coexpressing mitochondrial apoaequorin and Gα16, limiting dilution and selection by northern blotting. Positive clones were used for screening with human ovarian cancer ascites extracts prepared as described above. […] Briefly, cells were collected from plates in PBS containing 5 mM EDTA, pelleted and resuspended at 5×10^6 cells/ml in DMEM-F12 medium. Cells were incubated with 5 μM Coelenterazine H (Molecular Probes) for 4 hours at room temperature. Cells were then washed in DMEM-F12 medium and resuspended at a concentration of 0.5×10^6 cells/ml. Cells were then mixed with test agonist peptides or plates containing tissue extracts and the light emission was recorded for 30 sec using a Microlumat luminometer (Perkin Elmer). Results are expressed as Relative Light Units (RLU).

[3] = target: T3, ChemerinR expressing CHO-K1 cells (Homo sapiens, UniProt Q99788); assay: competition binding assay with 125I-[…] tracer; conditions: mean±s.e.m for 3 independent experiments
T3 construct: This fragment was subcloned into the pcDNA3 (Invitrogen) vector; expressed in transfected cells; host or cells: CHO-K1
T3 sequence (Q99788 3-373): T1 sequence (Q99788 3-373)
Protocol: ChemerinR expressing CHO-K1 cells were collected from plates with PBS supplemented with 5 mM EDTA, gently pelleted for 2 min at 1000×g, and resuspended in binding buffer (50 mM HEPES, pH 7.4, 1 mM CaCl2, 5 mM MgCl2, 0.5% BSA). […] Total binding was measured in the absence of competitor, and nonspecific binding was measured in the presence of a 100-fold excess of unlabeled ligand. Samples were incubated for 90 min at 27° C. and then bound tracer was separated by filtration through GF/B filters presoaked in 0.5% BSA. Filters were counted in a […]-scintillation counter. Binding parameters were determined with the PRISM software (Graphpad Software) using nonlinear regression applied to a one-site competition model.

[4] = test system: human monocyte-derived dendritic cells and macrophages; assay: chemotaxis (48-well microchemotaxis chamber) of primary cells; format: cell-based
Protocol: (§1) Monocyte-derived DCs were generated by GM-CSF (50 ng/ml) and IL-13 (20 ng/ml) stimulation as previously described (17). Maturation of DCs was achieved following stimulation with 100 ng/ml LPS. Macrophages were obtained by incubating monocytes in Petriperm dishes (Haereus) for 6 days in RPMI supplemented with 10% FCS and 10 ng/ml MCSF. Cell migration was evaluated using a 48-well microchemotaxis chamber technique as described (18). For Ca2+ mobilization assays, monocyte-derived DCs or macrophages (10^7 cells/ml in HBSS without phenol red but containing 0.1% BSA) were loaded with 5 μM FURA-2 (Molecular Probes) for 30 min at 37° C. in the dark. The loaded cells were washed twice, resuspended at 10^6 cells/ml, kept for 30 min at 4° C. in the dark with or without the blocking 4C7 monoclonal antibody (10 μg/ml), and transferred into the quartz cuvette of a luminescence spectrometer LS50B (PerkinElmer).

[5] = test system: human chemerinR in CHO-K1 cells; assay: intracellular cascade assays (calcium release, cAMP accumulation, p42/p44 MAP kinase phosphorylation) in CHO/chemerinR cells; format: cell-based
[6] = test system: monocyte-derived immature dendritic cells and macrophages; assay: Ca2+ mobilization (FURA-2) in primary cells; format: cell-based, human; conditions: similar for macrophages, Chemerin 30 nM
Protocol: as §1

[7] = test system: wild-type CHO-K1 cells; assay: signalling assays on wild-type CHO-K1 cells; format: cell-based, hamster
[8] = test system: C5a and C3a receptors, CRTH2, GPR1, other characterized and orphan receptors, most chemokine receptors; assay: reactivity of related and other receptors to Chemerin; format: cell-based; conditions: purified human Chemerin
[9] = 100 nM; culture medium or conditioned media of CHO-K1, Cos-7 or HEK293 cells
Protocol: In order to investigate whether proteolytic activation of prochemerin is performed intracellularly in the secretory pathway, or is an extracellular process, potentially regulated by the activation of extracellular proteases, we tested the activation of human purified prochemerin in the medium of cultured cells and conditioned media.

[10] = test system: B16-F0 melanoma cells; assay: B16-F0 melanoma model, subcutaneous graft in C57Bl6 mice; format: in vivo, mouse
Protocol: (§2) B16-F0 melanoma cells (ATCC) were transfected with the pEFIN3-mouse chemerin plasmid using FuGene6, and selected with 800 μg/ml G418. Clones were characterized by assaying the conditioned medium on chemerinRexpres sing cells. In vitro proliferation rate was determined by BrdU incorporation as described30. For in vivo studies, cells were washed twice with PBS, and grafted (6×10^5 cells in 0.1 ml PBS) subcutaneously into the back of 10-week-old C57B16 mice (5 to 11 mice per group, Harlan, The Netherlands). Perpendicular tumor diameters (D and d) were measured every 2 days, and the volume was estimated as V=π(d/2)(D/2)(d/2). Statistical analysis was performed by using the unpaired non parametric Mann-Whitney test. For microscopic analysis, tumors were embedded in OCT, snap-frozen in −80° C. isopentane and cut at 12 μm. Sections were stained with hematoxylin-eosin (HE) for routine analysis. All animal procedures were approved by the ethical committee of the Medical School of the Universite Libre de Bruxelles.

[11] = test system: B16F0 melanoma cell line; assay: in vitro proliferation of transfected B16F0 cells (BrdU, cell cycle, cell counting); format: cell-based, mouse; conditions: expression of Chemerin in B16F0 cells
Protocol: as §2

CC(C)C[C@H](NC(=O)[C@@H](N)Cc1ccccc1)C(=O)N1CCC[C@H]1C(=O)NCC(=O)N[C@@H](CCC(N)=O)C(=O)N[C@@H](Cc1ccccc1)C(=O)N[C@@H](C)C(=O)N[C@@H](Cc1ccccc1)C(=O)N[C@@H](CO)C(=O)O (H-FLPGQFAFS-OH; N-terminus and C-terminus assumed)
EC50 [1]: 29.1 nM

CC[C@H](C)[C@H](N)C(=O)N[C@@H](Cc1ccccc1)C(=O)N1CCC[C@H]1C(=O)NCC(=O)N[C@@H](CCC(N)=O)C(=O)N[C@@H](Cc1ccccc1)C(=O)N[C@@H](C)C(=O)N[C@@H](Cc1ccccc1)C(=O)N[C@@H](CO)C(=O)O (H-IFPGQFAFS-OH; N-terminus and C-terminus assumed)
EC50 [1]: 25.8 nM

CC(C)C[C@H](N)C(=O)N[C@@H](Cc1ccccc1)C(=O)N1CCC[C@H]1C(=O)NCC(=O)N[C@@H](CCC(N)=O)C(=O)N[C@@H](Cc1ccccc1)C(=O)N[C@@H](C)C(=O)N[C@@H](Cc1ccccc1)C(=O)N[C@@H](CO)C(=O)O (H-LFPGQFAFS-OH; N-terminus and C-terminus assumed)
EC50 [1]: 66.3 nM

C[C@H](NC(=O)[C@H](Cc1ccccc1)NC(=O)[C@H](CCC(N)=O)NC(=O)CNC(=O)[C@@H]1CCCN1C(=O)[C@H](Cc1ccccc1)NC(=O)[C@@H](N)Cc1ccc(O)cc1)C(=O)N[C@@H](Cc1ccccc1)C(=O)N[C@@H](CC(=O)O)C(N)=O (H-YFPGQFAFD-NH2; N-terminus assumed)
EC50 [1]: 4.3 nM

C[C@H](NC(=O)[C@H](Cc1ccccc1)NC(=O)[C@H](CCC(N)=O)NC(=O)CNC(=O)[C@@H]1CCCN1C(=O)[C@H](Cc1ccccc1)NC(=O)[C@H](Cc1ccccc1)NC(=O)[C@H](Cc1ccccc1)NC(=O)[C@H](CO)NC(=O)[C@H](Cc1c[nH]cn1)NC(=O)[C@@H](N)Cc1ccc(O)cc1)C(=O)N[C@@H](Cc1ccccc1)C(=O)N[C@@H](CO)C(=O)O (H-YHSFFFPGQFAFS-OH; N-terminus and C-terminus assumed)
EC50 [2]: 28 nM | Ki ([3]; Ki): 12.1 ± 4.97 nM | Ki ([3]; pKi): 11.2 nM

CC(C)[C@H](NC(=O)[C@@H](N)Cc1ccc(O)cc1)C(=O)N1CCC[C@H]1C(=O)NCC(=O)N[C@@H](CCC(N)=O)C(=O)N[C@@H](Cc1ccccc1)C(=O)N[C@@H](C)C(=O)N[C@@H](Cc1ccccc1)C(=O)N[C@@H](CO)C(=O)O (H-YVPGQFAFS-OH; N-terminus and C-terminus assumed)
EC50 ([1]; read-out: EC50): 43.8 nM

Pertussis toxin [reference compound]
effect on Chemerin-induced migration ([4]; macrophages and dendritic cells, Pertussis toxin 3 μg/ml, 4C7 10 μg/ml): completely abolished | effect on Chemerin signalling effects ([5]; pretreatment): inhibited

recombinant Chemerin: human recombinant Chemerin expressed in CHO-K1 cells, C-terminally truncated after serine 157 (137 amino acids)
concentration of maximal chemotactic activity ([4]; immature dendritic cells): 1 nM | in vitro migration ([4]; macrophages and immature dendritic cells): promoted in vitro migration | chemotaxis ([4]; mature dendritic cells): no chemotaxis | intracellular Ca2+ levels [6]: increased | concentrations causing intracellular calcium release, inhibition of cAMP accumulation, phosphorylation of p42 and p44 MAP kinases [5]: low nanomolar concentrations | activity on wild-type CHO-K1 cells [7]: No activity | reactivity of other receptors [8]: totally unreactive

B1: prochemerin: unprocessed form of the protein retaining the six C-terminal aminoacids (143 amino acids) (protein, listed as Homo sapiens)
chain: ELTEAQRRGLQVALEEFHKHPPVQWAFQETSVESAVDTPFPAGIFVRLEFKLQQTSCRKRDWKKPECKVRPNGRKRKCLACIKLGSEDKVLGRLVHCPIETQVLREAEEHQETQCLRVQRAGEDPHSFYFPGQFAFSKALPRS
EC50 ([2]; CHO cells expressing ChemerinR, aequorin assay, read-out: EC50 for activation of ChemerinR): 393 ± 116 nM | EC50 ([2]; truncated Chemerin peptides, values in nM, read-out: Mean EC50): 393 ± 116 nM | activity on wild-type CHO-K1 cells [7]: No activity | conversion into a form active on ChemerinR [9]: fully converted

B2: mouse Chemerin: mouse Chemerin expressed by B16F0 melanoma cells transfected with a bicistronic expression vector containing the mouse Chemerin cDNA (protein)
chain: EPELSETQRRSLQVALEEFHKHPPVQLAFQEIGVDRAEEVLFSAGTFVRLEFKLQQTNCPKKDWKKPECTIKPNGRRRKCLACIKMDPKGKILGRIVHCPILKQGPQDPQELQCIKIAQAGEDPHGYFLPGQFAFSRALRTK
average reduction of size of developing tumors ([10]; 21-24 days after the graft of Chemerin-expressing cells vs control): 70% | mice that did not develop tumors ([10]; three series combined, up to four weeks after graft, 0/24 in control group, p<0.05): 5 out of 24 | growth rate of the cell lines [11]: did not modify the growth rate
